The subject of the assay is L1210 leukemia ip in BDF1 mice, survival T/C. Put plainly: NCI In Vivo Anticancer Drug Screen. Data for tumor model L1210 Leukemia (intraperitoneal) in B6D2F1 (BDF1) mice. The settings on record: endpoint: mean survival time, higher = longer survival. The essentials:
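Transplanted-tumor mice were given test agent; controls received vehicle only. Survival readings from the two groups were divided (treated over control).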

The mark [1] stands for this setting: dose: 100.0 mg/kg/injection, schedule: Q04DX003 (ip), vehicle: saline with Tween-80.
[2] abbreviates: dose: 50.0 mg/kg/injection, schedule: Q01DX001 (ip), vehicle: carboxymethylcellulose (CMC).
[3] abbreviates: dose: 100.0 mg/kg/injection, schedule: Q01DX001 (ip), vehicle: carboxymethylcellulose (CMC).
Setting [4] is: dose: 200.0 mg/kg/injection, schedule: Q01DX001 (ip), vehicle: carboxymethylcellulose (CMC).
Setting [5] is: dose: 400.0 mg/kg/injection, schedule: Q01DX001 (ip), vehicle: carboxymethylcellulose (CMC).
[6] abbreviates: dose: 200.0 mg/kg/injection, schedule: Q04DX003 (ip), vehicle: saline with Tween-80.
[7] abbreviates: dose: 400.0 mg/kg/injection, schedule: Q04DX003 (ip), vehicle: saline with Tween-80.
Setting [8] is: dose: 100.0 mg/kg/injection, schedule: Q04DX003 (ip), vehicle: saline.
Where [9] appears, read: dose: 100.0 mg/kg/injection, schedule: Q01DX001 (ip), vehicle: Klucel (hydroxypropylcellulose) (HPC).
Where [10] appears, read: dose: 200.0 mg/kg/injection, schedule: Q01DX001 (ip), vehicle: Klucel (hydroxypropylcellulose) (HPC).
The mark [11] stands for this setting: dose: 400.0 mg/kg/injection, schedule: Q01DX001 (ip), vehicle: Klucel (hydroxypropylcellulose) (HPC).
Where [12] appears, read: dose: 100.0 mg/kg/injection, schedule: Q01DX009 (ip), vehicle: saline with Tween-80.
Setting [13] is: dose: 200.0 mg/kg/injection, schedule: Q01DX009 (ip), vehicle: saline with Tween-80.
The mark [14] stands for this setting: dose: 50.0 mg/kg/injection, schedule: Q01DX009 (ip), vehicle: saline with Tween-80.

Where “and” joins values, the source holds several entries; their conditions need not be identical. Identical values can stand only once. Inconclusive results and toxic doses are left out.

As for `C=CCN(CC=C)P(=O)(N1CC1)N1CC1C` (configuration not stated), the T/C was 117 % of control (dose: 0.37 mg/kg/injection, schedule: Q01DX015 (ip), vehicle: carboxymethylcellulose (CMC)); 90 % of control (dose: 6.0 mg/kg/injection, schedule: Q01DX009 (ip), vehicle: saline); 162 % of control (dose: 10.0 mg/kg/injection, schedule: Q01DX001 (ip), vehicle: saline).

Consider `COC(=O)c1cn2cc(Cl)cc(Cl)c2c1C(=O)OC`, for which the T/C runs as follows: (dose: 100.0 mg/kg/injection, schedule: Q04DX002 (ip), vehicle: saline with Tween-80) 95 % of control; (dose: 200.0 mg/kg/injection, schedule: Q04DX002 (ip), vehicle: saline with Tween-80) 92 % of control; (dose: 400.0 mg/kg/injection, schedule: Q04DX002 (ip), vehicle: saline with Tween-80) 95 % of control.

Turning to `Nc1cccc(C(=O)NCc2cccnc2)c1`, the T/C runs as follows: (dose: 100.0 mg/kg/injection, schedule: Q04DX002 (ip), vehicle: saline) 110 % of control; (dose: 200.0 mg/kg/injection, schedule: Q04DX002 (ip), vehicle: saline) 107 % of control; (dose: 400.0 mg/kg/injection, schedule: Q04DX002 (ip), vehicle: saline) 104 % of control.

`NC(CO)C(O)c1ccc(N=Nc2ccc(O)cc2)cc1` (configuration not stated): under setting [1], the T/C was 90 % of control.

Turning to `O=C(Nc1cccc(Cl)c1)Nc1ccc(Br)c(C(F)(F)F)c1`, the T/C is 100 % of control under setting [2], 94 % of control under setting [3], 96 % of control under setting [4] and 94 % of control under setting [5].

For `COc1ccc(-c2nnc3n2C(C)(C)N=C(N)N3)cc1`, the T/C under setting [1] is 94 % of control, the T/C under setting [6] is 100 % of control and the T/C under setting [7] was 97 % of control.

For `CCCNCCCCCCNCCC`, under setting [8], the T/C is 98 % of control.

For the molecule `O=[N+]([O-])c1cc(S(=O)(=O)C(F)F)ccc1Cl`, the T/C is, setting by setting: (dose: 25.0 mg/kg/injection, schedule: Q04DX003 (ip), vehicle: gum acacia) 97 % of control; (dose: 50.0 mg/kg/injection, schedule: Q01DX009 (ip), vehicle: gum acacia) 93 % of control; (dose: 50.0 mg/kg/injection, schedule: Q04DX003 (ip), vehicle: gum acacia) 97 % of control; (dose: 100.0 mg/kg/injection, schedule: Q01DX009 (ip), vehicle: gum acacia) 88 % of control; (dose: 100.0 mg/kg/injection, schedule: Q04DX003 (ip), vehicle: gum acacia) 99 % of control and 102 % of control.

Turning to `CCOC(=O)C(Br)C(=O)OCC`, the T/C (dose: 18.75 mg/kg/injection, schedule: Q01DX009 (ip), vehicle: saline with Tween-80) is 97 % of control.

Take `CCCCCCCCCCCCCC(C)C`: the T/C (dose: 100.0 mg/kg/injection, schedule: Q01DX001 (ip), vehicle: saline) was 96 % of control; the T/C (dose: 200.0 mg/kg/injection, schedule: Q01DX001 (ip), vehicle: saline) was 102 % of control; the T/C (dose: 400.0 mg/kg/injection, schedule: Q01DX001 (ip), vehicle: saline) was 94 % of control.

Take `Cn1nnnc1/N=C/c1ccccc1`: the T/C is, setting by setting: under setting [8], 105 % of control; (dose: 200.0 mg/kg/injection, schedule: Q04DX003 (ip), vehicle: saline) 94 % of control; (dose: 400.0 mg/kg/injection, schedule: Q04DX003 (ip), vehicle: saline) 94 % of control.

For `COc1cccc(CN(C)C)c1C(O)c1ccccc1` (configuration not stated), the T/C was 95 % of control under setting [2], 97 % of control under setting [3] and 106 % of control under setting [4].

Consider `O=C(N/N=C/c1ccc(O)cc1)C(c1ccccc1)N1CCCCC1` (configuration not stated), for which the T/C was 102 % of control (dose: 100.0 mg/kg/injection, schedule: Q01DX001 (ip), vehicle: other); 93 % of control (dose: 200.0 mg/kg/injection, schedule: Q01DX001 (ip), vehicle: other); 96 % of control (dose: 400.0 mg/kg/injection, schedule: Q01DX001 (ip), vehicle: other).

Take `CNC(=O)NNC(=O)CNC(=O)Nc1cccc(C(F)(F)F)c1`: the T/C is, setting by setting: (dose: 12.5 mg/kg/injection, schedule: Q01DX009 (ip), vehicle: Klucel (hydroxypropylcellulose) (HPC)) 94 % of control; (dose: 25.0 mg/kg/injection, schedule: Q01DX009 (ip), vehicle: Klucel (hydroxypropylcellulose) (HPC)) 102 % of control; (dose: 50.0 mg/kg/injection, schedule: Q01DX009 (ip), vehicle: Klucel (hydroxypropylcellulose) (HPC)) 98 % of control.

As for `Nc1cccc(OCCCn2cc(-c3ccc(Cl)c(Cl)c3)c(N)nc2=O)c1`, the T/C by setting is: under setting [9], 99 % of control; under setting [10], 92 % of control; under setting [11], 100 % of control.

Take `C1CCCN(/N=N/N2CCCCCC2)CC1`: the T/C is 100 % of control (dose: 100.0 mg/kg/injection, schedule: Q01DX001 (ip), vehicle: saline with Tween-80); 92 % of control (dose: 200.0 mg/kg/injection, schedule: Q01DX001 (ip), vehicle: saline with Tween-80); 100 % of control (dose: 400.0 mg/kg/injection, schedule: Q01DX001 (ip), vehicle: saline with Tween-80).

With `N=C(N)c1cccc(NC(=O)c2cccc(C(=O)Nc3cccc(C(=N)N)c3)c2)c1`, the T/C (dose: 15.0 mg/kg/injection, schedule: Q01DX Z (ip), vehicle: saline) is 95 % of control; the T/C (dose: 30.0 mg/kg/injection, schedule: Q01DX Z (ip), vehicle: saline) was 98 % of control; the T/C (dose: 60.0 mg/kg/injection, schedule: Q01DX Z (ip), vehicle: saline) was 98 % of control; the T/C (dose: 120.0 mg/kg/injection, schedule: Q01DX Z (ip), vehicle: saline) was 93 % of control; the T/C (dose: 125.0 mg/kg/injection, schedule: Q01DX Z (ip), vehicle: water) is 96 % of control; the T/C (dose: 250.0 mg/kg/injection, schedule: Q01DX Z (ip), vehicle: water) was 98 % of control. Besides, the T/C (dose: 500.0 mg/kg/injection, schedule: Q01DX Z (ip), vehicle: water) was 104 % of control.

For `O/N=C/c1nc2ccccc2s1`, the T/C is 105 % of control (dose: 100.0 mg/kg/injection, schedule: Q04DX003 (ip), vehicle: Klucel (hydroxypropylcellulose) (HPC)); 91 % of control (dose: 200.0 mg/kg/injection, schedule: Q04DX003 (ip), vehicle: Klucel (hydroxypropylcellulose) (HPC)); 118 % of control (dose: 400.0 mg/kg/injection, schedule: Q04DX003 (ip), vehicle: Klucel (hydroxypropylcellulose) (HPC)).

Regarding `Cc1ccc(S(=O)(=O)/C=C(/I)c2ccccc2)cc1`, the T/C reads like this: under setting [12], 104 % of control; under setting [1], 95 % of control; under setting [13], 100 % of control; under setting [6], 92 % of control; (dose: 400.0 mg/kg/injection, schedule: Q01DX009 (ip), vehicle: saline with Tween-80) 94 % of control; under setting [7], 104 % of control.

In the case of `CC1CCc2cc3ccccc3nc21` (configuration not stated), the T/C was 104 % of control under setting [14], 104 % of control under setting [12] and 112 % of control under setting [13].

Turning to `CCOC(=O)C(=CNc1cccc2cnccc12)C(=O)OCC`, the T/C runs as follows: under setting [14], 91 % of control; under setting [12], 88 % of control; under setting [13], 88 % of control.

Take `CC(=O)OC1CCC2(C)C(=CCC3C2CCC2(C)C(C(C)C(N)=O)CCC32)C1` (configuration not stated): the T/C by setting is: under setting [9], 90 % of control and 91 % of control; under setting [10], 94 % of control and 91 % of control; under setting [11], 87 % of control and 100 % of control.

As to `CC1NC(=O)NC1CCCCCC(=O)O` (configuration not stated), the T/C is 98 % of control (dose: 50.0 mg/kg/injection, schedule: Q01DX001 (ip), vehicle: Klucel (hydroxypropylcellulose) (HPC)); 98 % of control under setting [9]; 97 % of control under setting [3]; 96 % of control under setting [10]; 98 % of control under setting [4]; 97 % of control under setting [5].

Turning to `O=C(CN1CCOCC1)Nc1ccc(S(=O)(=O)c2ccc(Cl)cc2)cc1`, the T/C runs as follows: under setting [1], 101 % of control; under setting [6], 101 % of control; under setting [7], 95 % of control.

Turning to `Cc1ccc(N)c(F)c1`, the T/C is 93 % of control (dose: 100.0 mg/kg/injection, schedule: Q04DX002 (sc), vehicle: olive oil, sesame oil, peanut oil); 98 % of control (dose: 200.0 mg/kg/injection, schedule: Q04DX002 (sc), vehicle: olive oil, sesame oil, peanut oil); 104 % of control (dose: 400.0 mg/kg/injection, schedule: Q04DX002 (sc), vehicle: olive oil, sesame oil, peanut oil).

These data come from PubChem BioAssay AID248 (DTP/NCI, 2004).
